A short description of assay [1]: Displacement of [3H] batrachotoxinin from rat sodium channel site 2 measured after 60 mins by scintillation counter method.
Assay [2] has as its target 5-hydroxytryptamine receptor 2B (Homo sapiens, UniProt P41595). Put plainly: Antagonist activity at human recombinant 5-HT2B receptor in CHOK1 cells measured after 30 mins by HTRF assay. The class given is cell-based. On the technique in general: In TR-FRET formats the signal depends on donor and acceptor labels being close together.
For assay [3], the target named is 5-hydroxytryptamine receptor 2A (Homo sapiens, UniProt P28223). Put plainly: Displacement of [3H] ketanserin from human recombinant 5-HT2A receptor measured after 60 mins by scintillation counter method. On the technique in general: Loss of bound radioactivity is the signal in a displacement assay; it reports binding, not function.
Chain of 5-hydroxytryptamine receptor 2A (P28223 whole entry): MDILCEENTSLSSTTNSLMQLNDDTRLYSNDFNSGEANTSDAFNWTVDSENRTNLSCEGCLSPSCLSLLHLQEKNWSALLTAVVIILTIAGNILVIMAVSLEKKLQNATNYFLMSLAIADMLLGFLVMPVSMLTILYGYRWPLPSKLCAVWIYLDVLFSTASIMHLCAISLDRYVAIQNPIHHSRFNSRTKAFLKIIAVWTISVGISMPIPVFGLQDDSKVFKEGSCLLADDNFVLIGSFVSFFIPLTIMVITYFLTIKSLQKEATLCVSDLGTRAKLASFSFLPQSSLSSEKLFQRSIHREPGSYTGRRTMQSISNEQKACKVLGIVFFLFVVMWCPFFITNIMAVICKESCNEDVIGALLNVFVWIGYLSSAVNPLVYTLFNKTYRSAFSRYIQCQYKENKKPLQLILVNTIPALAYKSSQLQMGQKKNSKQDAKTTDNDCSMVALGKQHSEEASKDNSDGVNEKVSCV
Assay [4] concerns the target Sodium-dependent serotonin transporter (Homo sapiens, UniProt P31645). Put plainly: Displacement of [3H] imipramine from human recombinant 5-HT transporter measured after 60 mins by scintillation counter method.
The target in assay [5] is T1, Substance-K receptor (Homo sapiens, UniProt P21452).
T1 sequence (P21452 whole entry): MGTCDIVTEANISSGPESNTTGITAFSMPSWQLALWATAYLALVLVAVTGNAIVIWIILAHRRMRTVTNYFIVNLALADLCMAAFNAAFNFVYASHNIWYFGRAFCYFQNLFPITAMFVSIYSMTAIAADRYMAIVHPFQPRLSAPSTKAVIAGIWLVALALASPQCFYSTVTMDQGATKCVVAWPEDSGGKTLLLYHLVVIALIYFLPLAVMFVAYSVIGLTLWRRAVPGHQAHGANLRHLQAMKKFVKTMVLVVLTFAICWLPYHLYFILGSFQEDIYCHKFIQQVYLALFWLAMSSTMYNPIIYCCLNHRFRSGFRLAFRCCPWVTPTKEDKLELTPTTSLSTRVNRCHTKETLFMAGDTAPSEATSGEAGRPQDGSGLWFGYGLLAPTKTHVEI
Put plainly: Displacement of [125I]NKA from human recombinant NK2 receptor measured after 60 mins by scintillation counter method.

Assay [6] has as its target T2, 5-hydroxytryptamine receptor 1A (Homo sapiens, UniProt P08908).
T2 sequence (P08908 whole entry): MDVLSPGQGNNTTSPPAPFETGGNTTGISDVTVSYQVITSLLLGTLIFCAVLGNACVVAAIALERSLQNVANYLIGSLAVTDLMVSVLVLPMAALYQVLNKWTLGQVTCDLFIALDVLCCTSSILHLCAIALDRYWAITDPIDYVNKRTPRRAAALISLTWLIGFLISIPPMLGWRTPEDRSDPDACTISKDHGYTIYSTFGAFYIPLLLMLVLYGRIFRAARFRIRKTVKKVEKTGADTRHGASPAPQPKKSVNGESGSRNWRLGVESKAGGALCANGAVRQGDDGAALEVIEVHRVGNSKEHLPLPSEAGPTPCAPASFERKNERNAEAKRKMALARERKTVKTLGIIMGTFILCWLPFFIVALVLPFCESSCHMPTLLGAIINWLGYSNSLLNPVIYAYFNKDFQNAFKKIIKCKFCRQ
In words: Displacement of [3H]OH-DPAT from human recombinant 5-HT1A receptor measured after 60 mins by scintillation counter method.

In general, IC50 refers to the concentration at which inhibition is half-maximal. As usually defined, the Ki is a dissociation constant, usually derived from enzyme kinetics or from competition with a known ligand.

Chain of 5-hydroxytryptamine receptor 2B (P41595 whole entry): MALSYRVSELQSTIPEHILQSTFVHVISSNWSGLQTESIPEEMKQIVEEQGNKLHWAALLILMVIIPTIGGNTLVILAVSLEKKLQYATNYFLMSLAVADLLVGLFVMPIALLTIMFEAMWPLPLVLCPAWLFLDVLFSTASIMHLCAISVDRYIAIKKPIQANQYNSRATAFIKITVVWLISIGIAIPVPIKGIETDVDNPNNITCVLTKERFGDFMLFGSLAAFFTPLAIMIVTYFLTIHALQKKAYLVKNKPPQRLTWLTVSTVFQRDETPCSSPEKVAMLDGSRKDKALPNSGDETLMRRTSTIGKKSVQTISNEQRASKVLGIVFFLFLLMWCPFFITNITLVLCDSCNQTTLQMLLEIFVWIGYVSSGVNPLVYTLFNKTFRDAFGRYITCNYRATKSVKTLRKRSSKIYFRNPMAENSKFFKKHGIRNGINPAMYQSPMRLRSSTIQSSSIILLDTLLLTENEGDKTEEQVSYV
Chain of Sodium-dependent serotonin transporter (P31645 whole entry): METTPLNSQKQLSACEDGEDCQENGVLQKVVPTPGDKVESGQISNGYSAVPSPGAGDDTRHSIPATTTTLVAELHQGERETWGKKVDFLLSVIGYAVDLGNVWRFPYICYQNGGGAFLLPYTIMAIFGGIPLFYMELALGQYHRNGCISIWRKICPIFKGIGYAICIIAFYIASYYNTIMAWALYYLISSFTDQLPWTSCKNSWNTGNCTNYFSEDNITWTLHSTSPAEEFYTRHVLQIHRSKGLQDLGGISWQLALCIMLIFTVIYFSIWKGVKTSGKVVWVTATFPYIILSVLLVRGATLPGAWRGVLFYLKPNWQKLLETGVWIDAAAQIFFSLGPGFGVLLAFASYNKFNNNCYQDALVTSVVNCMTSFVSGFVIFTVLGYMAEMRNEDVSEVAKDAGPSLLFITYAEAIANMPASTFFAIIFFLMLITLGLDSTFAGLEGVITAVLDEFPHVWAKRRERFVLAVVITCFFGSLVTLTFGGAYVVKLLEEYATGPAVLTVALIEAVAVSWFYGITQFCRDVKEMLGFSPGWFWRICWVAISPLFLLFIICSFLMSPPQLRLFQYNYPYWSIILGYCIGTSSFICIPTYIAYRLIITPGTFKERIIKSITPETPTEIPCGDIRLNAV

In assay [1], `COc1ccc(C(=O)O[C@H]2CC[C@@]3(C)[C@@H]4CC[C@H]5[C@]6(O)C[C@H](O)[C@@]7(O)[C@@H](CN8C[C@@H](C)CC[C@H]8[C@@]7(C)O)[C@]6(O)C[C@@]53O[C@]24O)cc1OC` [VERATRIDINE] gave an IC50 of 8.9 µM and a Ki of 8.1 µM.

On to `CN1C[C@@H](NS(=O)(=O)N(C)C)C[C@@H]2c3cccc4c3c(cn4C)C[C@H]21` [MESULERGINE], for which, in assay [2], the IC50 was determined as 0.0052 µM and the Ki is 0.0028 µM.

In the case of `CC(C)CCO[C@@H]1[C@H]2OC(C)(C)O[C@H]2[C@H]2COCc3cn(nn3)C[C@H]3O[C@H](CCN(CCc4ccc5ccccc5c4)CC[C@H]1O2)[C@H](OCCC(C)C)[C@H]1OC(C)(C)O[C@H]13`, the IC50 in assay [3] is 8.7 µM; in assay [1], 0.46 µM; in assay [4], greater than 100 µM; in assay [5] it was 3 µM; in assay [6], 0.68 µM; in assay [2], 15 µM. Further, the Ki in assay [3] was 4.7 µM; in assay [1], 0.41 µM; in assay [4], greater than 100 µM; in assay [5] it was 1.6 µM; in assay [6], 0.42 µM; in assay [2], 8.2 µM.

The values are drawn from ChEMBL document CHEMBL4393714, “Multi-targeting protein-protein interaction inhibitors: Evolution of macrocyclic ligands with embedded carbohydrates (MECs) to improve selectivity” (Eur J Med Chem, 2019).
